Assay results from ChEMBL document CHEMBL1144604, “Synthesis and biological evaluation of phosphonate derivatives as autotaxin (ATX) inhibitors” (Bioorg Med Chem Lett, 2007).

Experiments:
Autotaxin (Homo sapiens) [1] = biological target: Autotaxin (Homo sapiens) (UniProt Q13822); assay: Inhibition of human recombinant ATX at 1 uM after 16 hrs; values are per cent of control
Autotaxin (Homo sapiens) [2] = biological target: Autotaxin (Homo sapiens) (UniProt Q13822); assay: Inhibition of human recombinant ATX at 10 uM after 16 hrs; values are per cent of control
Autotaxin (Homo sapiens) [3] = biological target: Autotaxin (Homo sapiens) (UniProt Q13822); assay: Inhibition of human recombinant ATX at 100 uM after 16 hrs; values are per cent of control

SMILES	residual activity (Autotaxin (Homo sapiens) [1]) [%]	residual activity (Autotaxin (Homo sapiens) [2]) [%]	residual activity (Autotaxin (Homo sapiens) [3]) [%]
CCCCCCCCCCCCCCCC(=O)N[C@H](Cc1ccc(OCc2ncc(C)c(OC)c2C)cc1)C(O)CP(=O)(O)O (single isomer, unassigned; diastereomer a)	108	95	63
CCCCCCCCCCCCCCCC(=O)N[C@@H](Cc1ccc(OCCCCC)cc1)C(=O)CP(=O)(O)O	95	83	–
CCCCCCCCCCCCCCCC(=O)N[C@H](Cc1ccc(OCCC(C)C)cc1)C(=O)CP(=O)(O)O	97	101	76
CCCCCCCCCCCCCCCC(=O)N[C@H](Cc1ccc(OC)cc1)C(O)CP(=O)(O)O (single isomer, unassigned; diastereomer a)	100	78	57
CCCCCCCCCCCCCCCC(=O)N[C@H](Cc1ccc(OCCCCC)cc1)C(O)CP(=O)(O)O (single isomer, unassigned; diastereomer a)	81	85	80
CCCCCCCCCCCCCCCC(=O)N[C@@H](Cc1ccc(OCc2ccccn2)cc1)C(=O)CP(=O)(O)O	102	72	50
CCCCCCCCCCCCCCCC(=O)N[C@H](Cc1ccc(OC)cc1)C(O)CP(=O)(O)O (stereo in doubt; f20)	95	84	82
CCCCCCCCCCCCCCCC(=O)N[C@H](Cc1ccc(OCCCCC)cc1)C(O)CP(=O)(O)O (single isomer, unassigned; diastereomer b)	86	82	70
CCCCCCCCCCCCCC(=O)N[C@H](Cc1ccc(OCc2ncc(C)c(OC)c2C)cc1)C(O)CP(=O)(O)O (stereo in doubt; f38)	–	–	35
CCCCCCCCCCCCCCCC(=O)N[C@@H](Cc1ccc(OCCC(C)C)cc1)C(O)CP(=O)(O)O (stereo in doubt; f33)	104	104	82
CCCCCCCCCCCCCCCC(=O)N[C@@H](Cc1ccc(OC)cc1)C(O)CP(=O)(O)O (single isomer, unassigned; diastereomer a)	77	56	36
CCCCCCCCCCCCCCCC(=O)N[C@H](Cc1ccc(OCCC(C)C)cc1)C(O)CP(=O)(O)O (single isomer, unassigned; diastereomer a)	103	104	72
CCCCCCCCCCCCCCCC(=O)N[C@@H](Cc1ccc(OCCC)cc1)C(O)CP(=O)(O)O (single isomer, unassigned; diastereomer a)	110	97	77
CCCCCCCCCCCCCCCC(=O)N[C@@H](Cc1ccc(OCc2ncc(C)c(OC)c2C)cc1)C(O)CP(=O)(O)O (stereo in doubt; f17)	27	13	6
CCCCCCCCCCCCCCCC(=O)N[C@@H](Cc1ccc(OCc2ccccc2)cc1)C(O)CP(=O)(O)O (single isomer, unassigned; diastereomer b)	76	83	78
CCCCCCCCCCCCCCCC(=O)N[C@@H](Cc1ccc(OCc2cc(OCC(F)(F)F)ccn2)cc1)C(=O)CP(=O)(O)O	79	68	44
CCCCCCCCCCCCCCCC(=O)N[C@@H](Cc1ccc(OCCC)cc1)C(=O)CP(=O)(O)O	–	97	72
CCCCCCCCCCCCCC(=O)N[C@H](Cc1ccc(OCc2ncc(C)c(OC)c2C)cc1)C(O)CP(=O)(O)O (single isomer, unassigned; diastereomer a)	–	99	67
CCCCCCCCCCCCCCCC(=O)N[C@H](Cc1ccc(OCc2ccccn2)cc1)C(O)CP(=O)(O)O (single isomer, unassigned; diastereomer b)	92	78	69
CCCCCCCC/C=C/CCCCCCCC(=O)N[C@@H](Cc1ccc(OCc2ncc(C)c(OC)c2C)cc1)C(O)CP(=O)(O)O (single isomer, unassigned; diastereomer a)	–	45	15
CCCCCCCCCCCCCCCC(=O)N[C@@H](Cc1ccc(OCc2ncc(C)c(OC)c2C)cc1)C(O)CP(=O)(O)O (stereo in doubt; f18)	63	21	8
CCCCCCCCCCCCCCCC(=O)N[C@H](Cc1ccc(OCc2cc(OCC(F)(F)F)ccn2)cc1)C(=O)CP(=O)(O)O	85	70	57
CCCCCCCCCCCCCCCC(=O)N[C@@H](Cc1ccc(OCc2ccccn2)cc1)C(O)CP(=O)(O)O (single isomer, unassigned; diastereomer b)	–	74	65

SMILES	residual activity (Autotaxin (Homo sapiens) [1]) [%]	residual activity (Autotaxin (Homo sapiens) [2]) [%]	residual activity (Autotaxin (Homo sapiens) [3]) [%]
CCCCCCCCCCCCCCCC(=O)N[C@H](Cc1ccc(OCc2ccccn2)cc1)C(O)CP(=O)(O)O (stereo in doubt; f9)	103	76	60
CCCCCCCCCCCCCCCC(=O)N[C@H](Cc1ccc(OCCC(C)C)cc1)C(O)CP(=O)(O)O (single isomer, unassigned; diastereomer b)	–	104	94
CCCCCCCCCCCCCCCCCCCC(=O)N[C@@H](Cc1ccc(OCc2ncc(C)c(OC)c2C)cc1)C(O)CP(=O)(O)O (single isomer, unassigned; diastereomer a)	64	45	10
CCCCCCCCCCCCCCCC(=O)N[C@H](Cc1ccc(OCC2CCCCC2)cc1)C(O)CP(=O)(O)O (single isomer, unassigned)	84	80	67
CCCCCCCC/C=C/CCCCCCCC(=O)N[C@@H](Cc1ccc(OCc2ncc(C)c(OC)c2C)cc1)C(O)CP(=O)(O)O (stereo in doubt; f42)	77	68	58
CCCCCCCCCC(=O)N[C@H](Cc1ccc(OCc2ncc(C)c(OC)c2C)cc1)C(O)CP(=O)(O)O (stereo partly specified)	–	86	30
CCCCCCCCCCCCCCCC(=O)N[C@@H](Cc1ccc(OC)cc1)C(O)CP(=O)(O)O (stereo in doubt; f22)	84	80	69
CCCCCCCCCCCCCCCC(=O)N[C@H](Cc1ccc(OCCC)cc1)C(=O)CP(=O)(O)O	104	97	75
CCCCCCCCCCCCCCCC(=O)N[C@H](Cc1ccc(OCCC)cc1)C(O)CP(=O)(O)O (single isomer, unassigned; diastereomer b)	108	108	90
CCCCCCCCCCCCCCCC(=O)N[C@@H](Cc1ccc(OCCCCC)cc1)C(O)CP(=O)(O)O (single isomer, unassigned; diastereomer b)	94	90	70
CCCCCCCCCCCCCCCC(=O)N[C@H](Cc1ccc(OCc2ccccc2)cc1)C(O)CP(=O)(O)O (single isomer, unassigned; diastereomer b)	80	81	83
CCCCCCCCCCCCCCCC(=O)N[C@@H](Cc1ccc(OCc2ccccc2)cc1)C(=O)CP(=O)(O)O	–	71	61
CCCCCCCCCCCCCCCC(=O)N[C@@H](Cc1ccc(OCc2ccccc2)cc1)C(O)CP(=O)(O)O (single isomer, unassigned; diastereomer a)	97	77	68
CCCCCCCCCCCCCCCC(=O)N[C@@H](Cc1ccc(OCc2cc(OCC(F)(F)F)ccn2)cc1)C(O)CP(=O)(O)O (single isomer, unassigned; diastereomer b)	103	83	56
CCCCCCCCCCCCCCCC(=O)N[C@@H](Cc1ccc(OC)cc1)C(=O)CP(=O)(O)O	96	68	45
CCCCCCCCCCCCCCCC(=O)N[C@H](Cc1ccc(OCc2ccccc2)cc1)C(=O)CP(=O)(O)O	–	82	76
CCCCCCCCCCCCCCCC(=O)N[C@H](Cc1ccc(OCc2ccccc2)cc1)C(O)CP(=O)(O)O (single isomer, unassigned; diastereomer a)	83	82	83
CCCCCCCCCCCCCCCC(=O)N[C@H](Cc1ccc(OCc2cc(OCC(F)(F)F)ccn2)cc1)C(O)CP(=O)(O)O (single isomer, unassigned; diastereomer b)	–	84	64
CCCCCCCCCCCCCCCC(=O)N[C@@H](Cc1ccc(OCC2CCCCC2)cc1)C(O)CP(=O)(O)O (single isomer, unassigned; diastereomer b)	80	80	80
CCCCCCCCCCCCCCCC(=O)N[C@@H](Cc1ccc(OCCC(C)C)cc1)C(=O)CP(=O)(O)O	104	104	85
CCCCCCCCCCCCCCCCCC(=O)N[C@@H](Cc1ccc(OCc2ncc(C)c(OC)c2C)cc1)C(O)CP(=O)(O)O (single isomer, unassigned; diastereomer b)	–	90	62
CCCCCCCCCCCCCCCC(=O)N[C@H](Cc1ccc(OCCCCC)cc1)C(=O)CP(=O)(O)O	93	84	–
